The values below come from ChEMBL document CHEMBL5150071, “BAY-7081: A Potent, Selective, and Orally Bioavailable Cyanopyridone-Based PDE9A Inhibitor” (J Med Chem, 2022).

In series [1] the target is High affinity cGMP-specific 3',5'-cyclic phosphodiesterase 9A (Homo sapiens, UniProt O76083). The series is described as follows: Inhibition of full length human PDE9A expressed in Sf9 insect cells using [3H]-cGMP as substrate incubated for 60 mins by microbeta scintillation counter analysis.
Series [2] is filed under the species Homo sapiens. The series is described as follows: Selectivity index, ratio of IC50 for full length human PDE3B to IC50 for full length human PDE9A.
For series [3], the species on record is Homo sapiens. The series is described as follows: Selectivity index, ratio of IC50 for full length human PDE11A to IC50 for full length human PDE9A.
The species named for series [4] is Homo sapiens. The series is described as follows: Selectivity index, ratio of IC50 for full length human PDE10A to IC50 for full length human PDE9A.
The species named for series [5] is Homo sapiens. As to the kind of experiment: Selectivity index, ratio of IC50 for full length human PDE2A to IC50 for full length human PDE9A.
The species entered for series [6] is Homo sapiens. The series is described as follows: Selectivity index, ratio of IC50 for full length human PDE7B to IC50 for full length human PDE9A.
Series [7] is described as follows: Blood clearance in po or iv dosed Wistar rat measured over 24 hrs by LC-MS/MS analysis. In kind it is ADME, organism-based. Conditions: in vivo.
For series [8], the species on record is Homo sapiens. The series is described as follows: Selectivity index, ratio of IC50 for full length human PDE8A to IC50 for full length human PDE9A.
The species entered for series [9] is Homo sapiens. The series is described as follows: Selectivity index, ratio of IC50 for human platelet PDE5A to IC50 for full length human PDE9A.
Series [10] is filed under the species Homo sapiens. As to the kind of experiment: Selectivity index, ratio of IC50 for full length human PDE4B to IC50 for full length human PDE9A.
Series [11] in a line: Selectivity index, ratio of IC50 for bovine PDE6 to IC50 for full length human PDE11A.
Series [12] is described as follows: Selectivity index, ratio of IC50 for bovine brain PDE1 to IC50 for full length human PDE9A.
A short description of series [13]: Drug metabolism in rat hepatocytes assessed as glucuronidation at 10 uM incubated for 30 mins by LC-MS/MS analysis. It is filed as ADME, cell-based, Hepatocyte. As to conditions: 0.5 h.

Chain of High affinity cGMP-specific 3',5'-cyclic phosphodiesterase 9A (O76083 whole entry): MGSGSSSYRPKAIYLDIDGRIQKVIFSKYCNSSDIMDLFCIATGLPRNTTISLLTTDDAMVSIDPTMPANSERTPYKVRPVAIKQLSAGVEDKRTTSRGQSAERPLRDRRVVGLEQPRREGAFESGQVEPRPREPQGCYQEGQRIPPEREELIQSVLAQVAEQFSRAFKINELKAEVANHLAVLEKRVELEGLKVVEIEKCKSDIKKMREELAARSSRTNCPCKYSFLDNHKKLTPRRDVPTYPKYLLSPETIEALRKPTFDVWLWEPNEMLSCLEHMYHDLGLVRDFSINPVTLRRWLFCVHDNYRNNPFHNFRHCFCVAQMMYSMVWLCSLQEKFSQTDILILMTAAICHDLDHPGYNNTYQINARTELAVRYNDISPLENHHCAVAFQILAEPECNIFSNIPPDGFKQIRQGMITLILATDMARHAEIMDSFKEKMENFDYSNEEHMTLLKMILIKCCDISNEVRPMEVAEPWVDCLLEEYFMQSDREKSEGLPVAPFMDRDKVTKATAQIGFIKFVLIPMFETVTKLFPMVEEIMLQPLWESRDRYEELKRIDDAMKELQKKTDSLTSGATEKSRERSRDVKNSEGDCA

For orientation: IC50 means the midpoint of a concentration-inhibition curve. On to `CCc1ccnc2c(N3CCC(C)(C)CC3)c(C#N)c(=O)[nH]c12`, for which 610 nM corresponded to half-maximal inhibition in series [1] (IC50).

The compound `Cc1ccc(-c2c(C#N)c(=O)[nH]c3cccnc23)cc1` gave an IC50 in series [1] of 725 nM.

Consider `CCCC1CNCc2c1[nH]c(=O)c(C#N)c2N1CCC(C)(C)CC1.Cl` (stereo unspecified), for which the Ratio IC50 in the series listed under Homo sapiens [2], in the series listed under Homo sapiens [3], in the series filed under Homo sapiens [4], in the series listed under Homo sapiens [5], in the series listed under Homo sapiens [6] and in the series filed under Homo sapiens [8] was over 100 each time. The Ratio IC50 in the series listed under Homo sapiens [9] is over 100. Further, the CL in [7] was 46.7 mL/min/kg.

In turn, `CC1(C)CCN(c2c(C#N)c(=O)[nH]c3cccnc23)CC1` displayed a concentration for half-maximal inhibition (IC50) in series [1] of 330 nM.

For `CCCC1CCCc2c1[nH]c(=O)c(C#N)c2-c1ccc(C)cc1` (stereo unspecified), the Ratio IC50 in the series filed under Homo sapiens [2], in the series listed under Homo sapiens [3], in the series listed under Homo sapiens [10], in the series listed under Homo sapiens [4], in the series listed under Homo sapiens [5] and in the series filed under Homo sapiens [6] was 69 each time. Also, the Ratio IC50 in the series listed under Homo sapiens [8] and in the series filed under Homo sapiens [9] was 69 each time.

With `Cc1ccc(-c2c3c([nH]c(=O)c2C#N)CCCC3)cc1`, in series [11], the Ratio IC50 worked out at 17.

`CCCC1CNCc2c1[nH]c(=O)c(C#N)c2N1CCC2(CC2)C(F)(F)C1` (racemic) yielded a half-inhibitory concentration (IC50) in [1] of 100 nM. In addition, the Ratio IC50 in [12] is 9.

Take `CCCC1CCCc2c(-c3ccc(C)cc3)nc(=O)[nH]c21` (racemic): in series [1], the 50% inhibitory concentration (IC50) amounted to 13400 nM.

With `Cc1ccc(-c2c3c([nH]c(=O)c2C#N)C(C(C)C)CNC3)cc1.Cl` (racemic), the Drug metabolism entry in series [13] is “Metabolite_Detected”.

As to `COCC1CCCc2c1[nH]c(=O)c(C#N)c2-c1ccc(C)cc1` (racemic), the Drug metabolism result in [13] is given as “Metabolite_Detected”.

In series [1], `CCCCC1CCCc2c1[nH]c(=O)c(C#N)c2-c1ccc(C)cc1` (racemic) displayed an IC50 of 35 nM.

As for `CCCC1CNCc2c1[nH]c(=O)c(C#N)c2N1CCC(C)CC1` (racemic), 200 nM corresponded to half-maximal inhibition in series [1] (IC50).

With `CCCC1CNCc2c1[nH]c(=O)c(C#N)c2N1CCC2(CCOC2)CC1` (racemic), 13 nM corresponded to half-maximal inhibition in [1] (IC50). Moreover, the Ratio IC50 in [12] amounted to 12.

Consider `CCCC1CNCc2c1[nH]c(=O)c(C#N)c2N1CCC2(CC1)CC2(F)F` (racemic), for which the Ratio IC50 in series [12] was 30.

On to `CCCC1CNCc2c1[nH]c(=O)c(C#N)c2N1CCC2(CC1)CC2` (stereo in doubt; form 1), for which, in series [1], the concentration for half-maximal inhibition (IC50) is over 10000 nM.
